US9486524B2, “Composition for eliciting a specific CTL response, comprising a lympho-ablative compound and a molecule that contains antigenic sequences and targets professional antigen presenting cells” (priority 2006, dated 2016)

Key:
Format in all cases: in vivo, C57BL/6 mice
[1] = tested on: CD4, CD8, CD49d and B220 cells in the spleen and maxillary lymph nodes; assay: Lymphocyte depletion in lymphoid organs, phenotyping of spleen and maxillary lymph nodes (Example 2, Table 2); settings: 14 days after onset of treatment, ATG 20 mg/kg single ip, Fludarabine 100 mg/kg/day ip 6 days
Method: (§1) Blood sampling was performed by tail bleeding.
(§2) Blood, lymph node cells and splenocytes were processed according to previously described methods (28, 29) for numeration and flow cytometry assisted phenotyping. Blood lymphocytes were counted using Trypan blue.
The blood compartment represents only 1 to 2% on the total body lymphoid mass. The Inventors therefore monitored lymphocyte depletion by phenotyping for T and B cells, spleen and lymph nodes 14 days after onset of immunosuppression. Compared to controls (PBS and NRS) Fludarabine- and ATG-based immunosuppressive therapies induced modifications of lymphocyte proportion in lymphoid organs (Table 2).
Peripheral lymphoid organs were sampled 14 days after onset of immunosuppressive treatment administration. Values presented are the percentages of CD4, CD8, CD49d and B220 cells observed in the spleen and maxillary lymph nodes, and the absolute values of CD4, CD8, CD49d and B220 by reference to the number of lymphocytes contained in each organ.

[2] = tested on: peripheral blood lymphocytes (CD4+, CD8+, CD49d+ and B220+); assay: Peripheral blood lymphocyte depletion induced by immunosuppressive treatment (Example 2); settings: after onset of treatment; Fludarabine 100 mg/kg/day ip for 6 days
Method: Kinetic of the number of lymphocytes (CD4+, CD8+, CD49d+ and B220+) in peripheral blood following i.p. injection of 100 mg/kg/day Fludarabine for 6 days or following a single i.p. injection of 20 mg/kg ATG. Controls are injected with PBS or with 20 mg/kg of normal rabbit serum (NRS)
as §1, §2
Mouse ATG were prepared by injecting a rabbit sc with 5×10^8 thymocytes sampled on 6-weeks old C57BL/6 mice. This immunization was boosted 14 days later with an iv injection of identical material. Seven days later the animal was bled and serum IgG were purified on immobilized protein G column (Pierce). Purity was controlled by SDS PAGE analysis and quantity was estimated by the Bradford method with known concentration rabbit IgG as standards. Rabbit ATG was used at a concentration of 20 mg/kg with a single injection. As a control, normal rabbit serum was used.
Fludarabine (Sigma) was used at a concentration of 100 mg/kg/day for 6 days. Monoclonal antibodies: anti-CD4-APC, anti-CD8-PerCP, anti-B220-FITC and anti-CD49d (Pan NK)-PE were obtained from BD Biosciences.

MCa32A cells = assay: Tumor rejection model, MC38 murine colon adenocarcinoma cells expressing CEA (Example 2)
Method: as §1
MC32aCEA cells expressing CEA protein were obtained from Pr. W. Zimermann (LTI, Munich). These cells are derived from the MC38 murine colon adenocarcinoma (48).

[3] = tested on: CD4, CD8 and B220 cells in the spleen and lymph nodes; assay: Lymphocyte depletion in lymphoid organs, phenotyping of spleen and lymph nodes (Example 1, Table 1); settings: 10 days after onset of immunosuppressive treatment; ATG 20 mg/kg single ip, fludarabine 200 mg/kg/day ip 6 days
Method: as §1
Blood, lymph node cells and splenocytes were processed according to previously described methods (28, 29) for numeration and flow cytometry assited phenotyping. Blood lymphocytes were counted using Türk blue.
The blood compartment represents only 1 to 2% on the total body lymphoid mass. Lymphocyte depletion by phenotyping for T and B cells, spleen and lymph nodes 10 days after onset of immunosuppression has been monitored. Similarly to the situation in the blood compartment, ATG- and fludarabine-based immunosuppressive therapies induced a depletion of the T lymphocyte pool in lymphoid organs (Table 1).
Peripheral lymphoid organs were sampled 10 days after onset of immunosuppressive treatment administration. Values presented are the percentages of CD4, CD8 and B220 cells observed in the spleen and lymph nodes.

[4] = tested on: CEA-specific IFN-γ producing CD8+ cells; assay: γ-IFN ELISpot assay of CEA-specific CD8+ cells after immunization (Example 2)
Method: […] Seven days after last immunization, CEA-specific IFN-γ producing CD8+ cells were detected by ex vivo ELISpot assay using 1 μg/ml CEA pepscan. Data are expressed as the median numbers of γ-IFN spot forming colonies, SFC (n=3).
ATG- or Fludarabine-based immunosuppressive treatments were applied to animals 7 days prior to prime boost immunization with recombinant proteins. Immunizations performed iv with equimolar amounts of indicated recombinant proteins (50 μg for CyaAs, 19.2 μg for His-tag CEA) in presence of 10 μg CpG, were boosted id 7 days later with 10 μg of similar material (3.8 μg for His-tag CEA) and 2 μg of CpG. Seven days after last immunization, CEA-specific IFN-γ producing CD8+ cells were detected by ex vivo ELISpot assay using 1 μg/ml CEA pepscan. Data are expressed as the median numbers of γ-IFN spot forming colonies, SFC (n=2).
Multiscreen filtration plates (96 wells; Millipore, France) were coated with 4 μg/ml of rat anti-mouse gamma interferon (IFN-γ) antibody (clone R4-6A2; PharMingen, San Diego, Calif.), overnight at room temperature. Spleen cells from immunized mice were added to the wells and incubated for 20 h with or without CEA pepscan at 1 μg/ml. […] The number of γ-IFN producing cells was determined by counting the number of spot-forming colonies (SFC) in each well (C.T.L., Germany), and the results were expressed as number of SFC per 1×10^6 splenocytes (20).

For Nc1nc(F)nc2c1ncn2[C@@H]1O[C@H](CO)[C@@H](O)[C@@H]1O [Fludarabine], the “B220+ absolute value, Spleen” value [1] was 8 10^6 cells/ml, the “B220+ percentage, Spleen” value [1] was 42.4% and the “CD4+ absolute value, Spleen” value [1] was 3.8 10^6 cells/ml. For the same molecule, the “CD4+ percentage, Spleen” value [1] was 20.4%, the “CD8+ absolute value, Spleen” value [1] was 2.5 10^6 cells/ml and the “CD8+ percentage, Spleen” value [1] was 13.4%. The “CD49d+ absolute value, Spleen” value [1] was 1.4 10^6 cells/ml, the “CD49d+ percentage, Spleen” value [1] was 7.5% and the “B220+ absolute value, Lymph nodes” value ([1]; maxillary lymph nodes) was 0.3 10^6 cells/ml. The “B220+ percentage, Lymph nodes” value ([1]; maxillary lymph nodes) was 30.2%, the “CD4+ absolute value, Lymph nodes” value ([1]; maxillary lymph nodes) was 0.3 10^6 cells/ml and the “CD4+ percentage, Lymph nodes” value ([1]; maxillary lymph nodes) was 31.3%. For the same molecule, the “CD8+ absolute value, Lymph nodes” value ([1]; maxillary lymph nodes) was 0.3 10^6 cells/ml, the “CD8+ percentage, Lymph nodes” value ([1]; maxillary lymph nodes) was 35.3% and the “CD49d+ absolute value, Lymph nodes” value ([1]; maxillary lymph nodes) was 0.03 10^6 cells/ml. The “CD49d+ percentage, Lymph nodes” value ([1]; maxillary lymph nodes) was 3.8%, the “time for T cell values to return to control groups” value [2] was at most 7 days and the “size of tumors relative to the other groups (smaller)” value (MCa32A cells; at the time of CyaA-based immunotherapy) was 20 times. For the same molecule, the “survival median of mock-treated animals” value (MCa32A cells; immunosuppressive treatment 3 days after tumor inoculation, no CEA immunization) was 21 to 25 days, the “percentage of B220+ cells, Lymph nodes” value [3] was 32.4% and the “percentage of B220+ cells, Spleen” value [3] was 54.3%. For the same molecule, the “percentage of CD4+ cells, Lymph nodes” value [3] was 37.8%, the “percentage of CD4+ cells, Spleen” value [3] was 21.9% and the “percentage of CD8+ cells, Lymph nodes” value [3] was 20.8%. The “percentage of CD8+ cells, Spleen” value [3] was 5.3%.

B1: His-Tag-CEA: histidine-tagged full length CEA protein, used as control, formulated with CpG (protein, UniProt P06731 1-702, looked up)
chain: MESPSAPPHRWCIPWQRLLLTASLLTFWNPPTTAKLTIESTPFNVAEGKEVLLLVHNLPQHLFGYSWYKGERVDGNRQIIGYVIGTQQATPGPAYSGREIIYPNASLLIQNIIQNDTGFYTLHVIKSDLVNEEATGQFRVYPELPKPSISSNNSKPVEDKDAVAFTCEPETQDATYLWWVNNQSLPVSPRLQLSNGNRTLTLFNVTRNDTASYKCETQNPVSARRSDSVILNVLYGPDAPTISPLNTSYRSGENLNLSCHAASNPPAQYSWFVNGTFQQSTQELFIPNITVNNSGSYTCQAHNSDTGLNRTTVTTITVYAEPPKPFITSNNSNPVEDEDAVALTCEPEIQNTTYLWWVNNQSLPVSPRLQLSNDNRTLTLLSVTRNDVGPYECGIQNELSVDHSDPVILNVLYGPDDPTISPSYTYYRPGVNLSLSCHAASNPPAQYSWLIDGNIQQHTQELFISNITEKNSGLYTCQANNSASGHSRTTVKTITVSAELPKPSISSNNSKPVEDKDAVAFTCEPEAQNTTYLWWVNGQSLPVSPRLQLSNGNRTLTLFNVTRNDARAYVCGIQNSVSANRSDPVTLDVLYGPDTPIISPPDSSYLSGANLNLSCHSASNPSPQYSWRINGIPQQHTQVLFIAKITPNNNGTYACFVSNLATGRNNSIVKSITVSASGTSPGLSAGATVGIMIGVLVGVALI
modifications: full-length His tag
notes: histidine-tagged full length CEA protein, used as control, formulated with CpG
With B1 the “CEA-specific cellular immune responses upon immunization after immunosuppressive treatment” value ([4]; compared with CyaA-CEAA3B3 + CpG, prime-boost with CpG) was “Lower CEA-specific cellular immune responses were detected” and the “cellular immune response characterized by γ-IFN secretion” value ([4]; one single iv administration, with CpG adjuvant, no immunosuppression) was “neither CyaAΔ-CEAA3B3 nor His-tag-CEA protein formulated with an adjuvant such as CpG, were able to mount a cellular immune response”.
